Patent US5502035A, “N-terminus modified analogs of LHRH” (Tap Holdings Inc., priority 1994, dated 1996)
Non-standard residues stand in square brackets, D forms with d. Residues, ends and D or L forms follow the SMILES beside them. *: point of attachment. Shikimoyl = O=C(C1=C[C@@H](O)[C@@H](O)[C@H](O)C1)*; dPhe(4-Cl) = N[C@H](Cc1ccc(Cl)cc1)C(=O)O; d2Nal = N[C@H](Cc1ccc2ccccc2c1)C(=O)O; Lys(iPr) = CC(C)NCCCC[C@H](N)C(=O)O; NMeY = CN[C@@H](Cc1ccc(O)cc1)C(=O)O; d3Pal = N[C@H](Cc1cccnc1)C(=O)O; Isonicotinoyl = O=C(c1ccncc1)*; Nicotinoyl = O=C(c1cccnc1)*; Picolinoyl = O=C(c1ccccn1)*; 2Furoyl = O=C(c1ccco1)*; X6 = O=C(c1ccoc1)*

Molecular target: T1, LHRH (Rattus norvegicus, UniProt P30969)
T1 construct: endogenous in cells; host or cells: rat pituitary cells (own knowledge of the cited Haviv 1989 method)
T1 sequence (P30969 1-327): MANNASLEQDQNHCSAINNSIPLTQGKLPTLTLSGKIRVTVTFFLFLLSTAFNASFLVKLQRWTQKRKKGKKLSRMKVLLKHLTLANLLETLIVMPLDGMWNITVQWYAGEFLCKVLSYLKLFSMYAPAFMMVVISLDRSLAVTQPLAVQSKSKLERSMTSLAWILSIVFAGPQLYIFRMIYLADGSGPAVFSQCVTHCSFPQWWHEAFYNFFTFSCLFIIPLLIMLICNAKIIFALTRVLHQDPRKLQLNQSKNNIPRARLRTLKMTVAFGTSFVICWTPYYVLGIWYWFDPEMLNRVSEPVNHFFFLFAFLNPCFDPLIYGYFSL
Assay: in vitro test for LHRH antagonist potency (pA2)
Format: cell-based
Conditions: negative logarithm of the antagonist concentration required to shift the response curve produced by the agonist leuprolide to two-fold higher concentration
Description: Representative compounds of the present invention were evaluated in an in vitro test for LHRH antagonist potency (pA2). The test employed the method detailed in F. Haviv, et al. J. Med. Chem., 32:2340-2344 (1989). The values of pA2 are the negative logarithms of the concentration of the particular antagonist test compound required to shift the response curve produced by the agonist leuprolide to two-fold higher concentration. (Leuprolide is the LHRH agonist having the structure 5-oxo-Pro^1 -His^2 -Trp^3 -Ser^4 -Tyr^5 -D-Leu^6 -Leu^7 -Arg^8 -Pro^9 -NHEt and is disclosed and claimed in U.S. Pat. No. 4,005,063.) Typically pA2 values of 9.5 or greater are indicative of good LHRH antagonist potency, with values of 10.0 or greater being preferred.

Row | SMILES | Kb [nM]
1 | CC(C)C[C@H](NC(=O)[C@@H](CCCCNC(=O)c1cccnc1)NC(=O)[C@H](Cc1ccc(O)cc1)N(C)C(=O)[C@H](CO)NC(=O)[C@@H](Cc1cccnc1)NC(=O)[C@@H](Cc1ccc(Cl)cc1)NC(=O)[C@@H](Cc1ccc2ccccc2c1)NC(=O)CNC(=O)C1CCCO1)C(=O)N[C@@H](CCCCNC(C)C)C(=O)N1CCC[C@H]1C(=O)N[C@H](C)C(N)=O (mixture of isomers) [Example 3, N-(R,S)-Tetrahydrofur-2-oyl-Gly-D2Nal-D4ClPhe-D3Pal-Ser-NMeTyr-DLys(Nicotinyl) -Leu-Lys(N-epsilon-Isopropyl)-Pro-DAlaNH2] | 0.0158
2 | CC(C)C[C@H](NC(=O)[C@@H](CCCCNC(=O)NNC(=O)c1cccnc1)NC(=O)[C@H](Cc1ccc(O)cc1)N(C)C(=O)[C@H](CO)NC(=O)[C@@H](Cc1cccnc1)NC(=O)[C@@H](Cc1ccc(Cl)cc1)NC(=O)[C@@H](Cc1ccc2ccccc2c1)NC(=O)CNC(=O)C1CCCO1)C(=O)N[C@@H](CCCCNC(C)C)C(=O)N1CCC[C@H]1C(=O)N[C@H](C)C(N)=O (mixture of isomers) [Example 11, N-(R,S)Tetrahydrofur-2-oyl-Gly-D2Nal-D4ClPhe-D3Pal-Ser-NMeTyr-DLys(Azagly-Nicotinyl) -Leu-Lys(N-epsilon-Isopropyl)-Pro-DAlaNH2] | 0.038
3 | CC(C)C[C@H](NC(=O)[C@@H](CCCCNC(=O)CNC(=O)c1cccnc1)NC(=O)[C@H](Cc1ccc(O)cc1)N(C)C(=O)[C@H](CO)NC(=O)[C@@H](Cc1cccnc1)NC(=O)[C@@H](Cc1ccc(Cl)cc1)NC(=O)[C@@H](Cc1ccc2ccccc2c1)NC(=O)CNC(=O)C1CCCO1)C(=O)N[C@@H](CCCNC(=N)N)C(=O)N1CCC[C@H]1C(=O)N[C@H](C)C(N)=O (mixture of isomers) [Example 27b, N-(R,S)-Tetrahydrofur-2oyl-Gly-D2Nal-D4ClPhe-D3Pal-Ser-NMeTyr-DLys(Gly-Nic)-Leu-Arg-Pro-DAlaNH 2] | 0.0135
4 | CC(C)C[C@H](NC(=O)[C@@H](CCCCNC(=O)NNC(=O)c1ccco1)NC(=O)[C@H](Cc1ccc(O)cc1)N(C)C(=O)[C@H](CO)NC(=O)[C@@H](Cc1cccnc1)NC(=O)[C@@H](Cc1ccc(Cl)cc1)NC(=O)[C@@H](Cc1ccc2ccccc2c1)NC(=O)CNC(=O)C1CCCO1)C(=O)N[C@@H](CCCCNC(C)C)C(=O)N1CCC[C@H]1C(=O)N[C@H](C)C(N)=O (mixture of isomers) [Example 30a, N-(R,S)-Tetrahydrofur-2-oyl-Gly-D2Nal-D4ClPhe-D3Pal-Ser-NMeTyr-DLys(Azagly-2Fur)-Leu-Lys(Isp)-Pro-DAlaNH2] | 0.0479
5 | CC(C)C[C@H](NC(=O)[C@@H](CCCCNC(=O)c1cccnc1)NC(=O)[C@H](Cc1ccc(O)cc1)N(C)C(=O)[C@H](CO)NC(=O)[C@@H](Cc1cccnc1)NC(=O)[C@@H](Cc1ccc(Cl)cc1)NC(=O)[C@@H](Cc1ccc2ccccc2c1)NC(=O)CNC(=O)C1CCCO1)C(=O)N[C@@H](CCCCNC(C)C)C(=O)N1CCC[C@H]1C(=O)N(C)CC(N)=O (mixture of isomers) [Example 38, N-(R,S)-Tetrahydrofur-2-oyl-Gly-D2Nal-D4ClPhe-D3Pal-Ser-NMeTyr-DLys(Nicotinyl)-Leu-Lys(Isp)-Pro-SarNH2] | 0.0309
6 | CC(C)C[C@H](NC(=O)[C@@H](CCCCNC(=O)c1cccnc1)NC(=O)[C@H](Cc1ccc(O)cc1)NC(=O)[C@H](CO)NC(=O)[C@@H](Cc1cccnc1)NC(=O)[C@@H](Cc1ccc(Cl)cc1)NC(=O)[C@@H](Cc1ccc2ccccc2c1)NC(=O)CNC(=O)C1CCCO1)C(=O)N[C@@H](CCCCNC(C)C)C(=O)N1CCC[C@H]1C(=O)N[C@H](C)C(N)=O (mixture of isomers) [Example 91, N (R,S)-2-Tetrahydrofuroyl-Gly-D2Nal-D4ClPhe-D3Pal-Ser-Tyr-DLys(N-epsilon-Nicotinyl) -Leu-Lys(N-epsilon-Isopropyl)-Pro-DAlaNH2] | 0.00219
7 | CC(=O)N[C@H](Cc1ccc(O)cc1)C(=O)N[C@H](Cc1ccc2ccccc2c1)C(=O)N[C@H](Cc1ccc(Cl)cc1)C(=O)N[C@H](Cc1cccnc1)C(=O)N[C@@H](CO)C(=O)N(C)[C@@H](Cc1ccc(O)cc1)C(=O)N[C@H](CCCCNC(=O)c1cccnc1)C(=O)N[C@@H](CC(C)C)C(=O)N[C@@H](CCCCNC(C)C)C(=O)N1CCC[C@H]1C(=O)N[C@H](C)C(N)=O [Example 1, N-Ac-DTyr-D2Nal-D4ClPhe-D3Pal-Ser-NMeTyr-DLys(Nicotinyl)-Leu-Lys(N-epsilon- Isopropyl) -Pro-DAlaNH2] (Ac-[dY][d2Nal][dPhe(4-Cl)][d3Pal]S[NMeY][dK](Nicotinoyl)L[Lys(iPr)]P[dA]-NH2) | 0.0178
8 | CC(C)C[C@H](NC(=O)[C@@H](CCCCNC(=O)c1cccnc1)NC(=O)[C@H](Cc1ccc(O)cc1)N(C)C(=O)[C@H](CO)NC(=O)[C@@H](Cc1cccnc1)NC(=O)[C@@H](Cc1ccc(Cl)cc1)NC(=O)[C@@H](Cc1ccc2ccccc2c1)NC(=O)CNC(=O)C1=C[C@@H](O)[C@@H](O)[C@H](O)C1)C(=O)N[C@@H](CCCCNC(C)C)C(=O)N1CCC[C@H]1C(=O)N[C@H](C)C(N)=O [Example 2a, N-Shikimyl-Gly-D2Nal-D4ClPhe-D3Pal-Ser-NMeTyr-DLys(N-epsilon-Nicotinyl) -Leu-Lys(N-epsilon-Isopropyl)-Pro-DAlaNH2] (Shikimoyl-G[d2Nal][dPhe(4-Cl)][d3Pal]S[NMeY][dK](Nicotinoyl)L[Lys(iPr)]P[dA]-NH2) | 0.0282
9 | CC(C)C[C@H](NC(=O)[C@@H](CCCCNC(=O)c1cccnc1)NC(=O)[C@H](Cc1ccc(O)cc1)N(C)C(=O)[C@H](CO)NC(=O)[C@@H](Cc1cccnc1)NC(=O)[C@@H](Cc1ccc(Cl)cc1)NC(=O)[C@@H](Cc1ccc2ccccc2c1)NC(=O)CNC(=O)c1ccco1)C(=O)N[C@@H](CCCCNC(C)C)C(=O)N1CCC[C@H]1C(=O)N[C@H](C)C(N)=O [Example 2c, N-2-Furoyl-Gly-D2Nal-D4ClPhe-D3Pal-Ser-NMeTyr-DLys(N-epsilon-Nicotinyl) -Leu-Lys(N-epsilon-Isopropyl)-Pro-DAlaNH2] (2Furoyl-G[d2Nal][dPhe(4-Cl)][d3Pal]S[NMeY][dK](Nicotinoyl)L[Lys(iPr)]P[dA]-NH2) | 0.00794
10 | CC(C)C[C@H](NC(=O)[C@@H](CCCCNC(=O)c1cccnc1)NC(=O)[C@H](Cc1ccc(O)cc1)N(C)C(=O)[C@H](CO)NC(=O)[C@@H](Cc1cccnc1)NC(=O)[C@@H](Cc1ccc(Cl)cc1)NC(=O)[C@@H](Cc1ccc2ccccc2c1)NC(=O)CNC(=O)c1ccoc1)C(=O)N[C@@H](CCCCNC(C)C)C(=O)N1CCC[C@H]1C(=O)N[C@H](C)C(N)=O [Example 2d, N-3Furoyl-Gly-D2Nal-D4ClPhe-D3Pal-Ser-NMeTyr-DLys(N-epsilon-Nicotinyl) -Leu-Lys(N-epsilon-Isopropyl)-Pro-DAlaNH2] (X6-G[d2Nal][dPhe(4-Cl)][d3Pal]S[NMeY][dK](Nicotinoyl)L[Lys(iPr)]P[dA]-NH2) | 0.0126
11 | CC(C)C[C@H](NC(=O)[C@@H](CCCCNC(=O)c1cccnc1)NC(=O)[C@H](Cc1ccc(O)cc1)N(C)C(=O)[C@H](CO)NC(=O)[C@@H](Cc1cccnc1)NC(=O)[C@@H](Cc1ccc(Cl)cc1)NC(=O)[C@@H](Cc1ccc2ccccc2c1)NC(=O)CNC(=O)c1ccccn1)C(=O)N[C@@H](CCCCNC(C)C)C(=O)N1CCC[C@H]1C(=O)N[C@H](C)C(N)=O [Example 2e, N-Picolyl-Gly-D2Nal-D4ClPhe-D3Pal-Ser-NMeTyr-DLys(N-epsilon-Nicotinyl) -Leu-Lys(N-epsilon-Isopropyl)-Pro-DAlaNH2] (Picolinoyl-G[d2Nal][dPhe(4-Cl)][d3Pal]S[NMeY][dK](Nicotinoyl)L[Lys(iPr)]P[dA]-NH2; N-terminus assumed) | 0.02
12 | CC(C)C[C@H](NC(=O)[C@@H](CCCCNC(=O)c1cccnc1)NC(=O)[C@H](Cc1ccc(O)cc1)N(C)C(=O)[C@H](CO)NC(=O)[C@@H](Cc1cccnc1)NC(=O)[C@@H](Cc1ccc(Cl)cc1)NC(=O)[C@@H](Cc1ccc2ccccc2c1)NC(=O)CNC(=O)c1cccnc1)C(=O)N[C@@H](CCCCNC(C)C)C(=O)N1CCC[C@H]1C(=O)N[C@H](C)C(N)=O [Example 2f, N-Nicotinyl-Gly-D2Nal-D4ClPhe-D3Pal-Ser-NMeTyr-DLys(N-epsilon-Nicotinyl) -Leu-Lys(N-epsilon-Isopropyl)-Pro-DAlaNH2] (Nicotinoyl-G[d2Nal][dPhe(4-Cl)][d3Pal]S[NMeY][dK](Nicotinoyl)L[Lys(iPr)]P[dA]-NH2) | 0.00891
13 | CC(C)C[C@H](NC(=O)[C@@H](CCCCNC(=O)c1cccnc1)NC(=O)[C@H](Cc1ccc(O)cc1)N(C)C(=O)[C@H](CO)NC(=O)[C@@H](Cc1cccnc1)NC(=O)[C@@H](Cc1ccc(Cl)cc1)NC(=O)[C@@H](Cc1ccc2ccccc2c1)NC(=O)CNC(=O)c1ccncc1)C(=O)N[C@@H](CCCCNC(C)C)C(=O)N1CCC[C@H]1C(=O)N[C@H](C)C(N)=O [Example 2g, N-Isonicotinyl-Gly-D2Nal-D4ClPhe-D3Pal-Ser-NMeTyr-DLys(N-epsilon-Nicotinyl) -Leu-Lys(N-epsilon-Isopropyl)-Pro-DAlaNH2] (Isonicotinoyl-G[d2Nal][dPhe(4-Cl)][d3Pal]S[NMeY][dK](Nicotinoyl)L[Lys(iPr)]P[dA]-NH2) | 0.00708
